pIC50: −log10 of the molar value. Values after ≈ are worked out from the molar mass of the structure shown. Active and inactive are the calls of the source. The calls are words filed in the database; no cut-off is given here.
Tests used:
HEL = experiment: Antiproliferative activity against human HEL cells assessed as cell growth inhibition incubated for 24 hrs by CCK-8 assay; assay type: functional, cell-based
[1] = biological target: T1, Bromodomain-containing protein 4 (Homo sapiens, UniProt O60885); experiment: Inhibition of recombinant BRD4 (unknown origin) incubated for 120 mins by TR-FRET assay
[2] = Metabolic stability in ICR mouse liver microsome assessed as clearance; assay type: ADME; conditions: liver microsomes, read-out: CLH
MDA-MB-231 [3] = experiment: Induction of apoptosis in human MDA-MB-231 cells assessed as late apoptotic cells at 5 uM incubated for 48 hrs by Annexin V-FITC/PI staining based flow cytometry relative to control; assay type: functional
Candida albicans [4] = experiment: microbe, parasite or virus in culture; assay type: functional; conditions: 0304103, time 48 hrs
Description: Synergistic antifungal activity against azole-resistant Candida albicans 0304103 assessed as fungal growth inhibition measured after 48 hrs by CLSI based micro-dilution broth method

[5] = biological target: T1, Bromodomain-containing protein 4; experiment: Inhibition of recombinant BRD4 (unknown origin) incubated for 120 mins by TR-FRET assay relative to control; design: concentration or dose not given beside the values
Candida albicans [6] = experiment: microbe, parasite or virus in culture; assay type: functional; conditions: 0304103, time 48 hrs; remark: listed apart in the source
Description: Synergistic antifungal activity against azole-resistant Candida albicans 0304103 assessed as fungal growth inhibition measured after 48 hrs in presence of FLC by CLSI based micro-dilution broth method

MDA-MB-231 [7] = experiment: Upregulation of acetyl-H3 level in human MDA-MB-231 cells incubated for 24 hrs by Western blot analysis; assay type: functional, cell-based; conditions: dose 0.2-5 µM
HL-60 = experiment: Antiproliferative activity against human HL-60 cells assessed as cell growth inhibition incubated for 24 hrs by CCK-8 assay; assay type: functional, cell-based; conditions: HL-60, 24 h
MDA-MB-231 [8] = experiment: Induction of apoptosis in human MDA-MB-231 cells assessed as late apoptotic cells at 10 uM incubated for 48 hrs by Annexin V-FITC/PI staining based flow cytometry relative to control; assay type: functional
[9] = biological target: Bromodomain testis-specific protein (Homo sapiens, UniProt Q58F21); experiment: Inhibition of recombinant BRDT BD1 (unknown origin) incubated for 120 mins by TR-FRET assay
K562 = experiment: Antiproliferative activity against human K562 cells assessed as cell growth inhibition incubated for 24 hrs by CCK-8 assay; assay type: functional, cell-based; conditions: K562, 24 h
Histone deacetylase 3 = Histone deacetylase 3 (Homo sapiens, UniProt O15379); experiment: Inhibition of His-tagged recombinant human HDAC3 expressed in baculovirus infected insect cells using Ac-Leu-Gly-Lys(Ac)-AMC as substrate incubated for 30 mins by fluorescence based assay; design: species or system Insect cell
Chain of Histone deacetylase 3 (O15379 whole entry): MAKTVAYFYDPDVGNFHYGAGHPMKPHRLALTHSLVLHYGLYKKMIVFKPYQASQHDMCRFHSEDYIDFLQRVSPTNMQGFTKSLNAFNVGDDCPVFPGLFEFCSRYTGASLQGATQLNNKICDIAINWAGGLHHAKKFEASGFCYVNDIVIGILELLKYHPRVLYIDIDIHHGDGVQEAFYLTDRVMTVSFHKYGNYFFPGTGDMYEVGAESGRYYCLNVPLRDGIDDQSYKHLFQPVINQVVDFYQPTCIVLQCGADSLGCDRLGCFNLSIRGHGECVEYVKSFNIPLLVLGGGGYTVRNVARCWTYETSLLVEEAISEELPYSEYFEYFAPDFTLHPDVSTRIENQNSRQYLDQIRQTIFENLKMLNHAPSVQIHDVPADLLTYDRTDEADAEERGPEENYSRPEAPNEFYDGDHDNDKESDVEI

[10] = biological target: T2, Protein deacetylase HDAC6 (Homo sapiens, UniProt Q9UBN7); experiment: Inhibition of N-terminal GST-tagged recombinant human HDAC6 expressed in baculovirus infected Sf9 insect cells using Ac-Leu-Gly-Lys(Ac)-AMC as substrate incubated for 30 mins by fluorescence based assay
T2 sequence (Q9UBN7 whole entry): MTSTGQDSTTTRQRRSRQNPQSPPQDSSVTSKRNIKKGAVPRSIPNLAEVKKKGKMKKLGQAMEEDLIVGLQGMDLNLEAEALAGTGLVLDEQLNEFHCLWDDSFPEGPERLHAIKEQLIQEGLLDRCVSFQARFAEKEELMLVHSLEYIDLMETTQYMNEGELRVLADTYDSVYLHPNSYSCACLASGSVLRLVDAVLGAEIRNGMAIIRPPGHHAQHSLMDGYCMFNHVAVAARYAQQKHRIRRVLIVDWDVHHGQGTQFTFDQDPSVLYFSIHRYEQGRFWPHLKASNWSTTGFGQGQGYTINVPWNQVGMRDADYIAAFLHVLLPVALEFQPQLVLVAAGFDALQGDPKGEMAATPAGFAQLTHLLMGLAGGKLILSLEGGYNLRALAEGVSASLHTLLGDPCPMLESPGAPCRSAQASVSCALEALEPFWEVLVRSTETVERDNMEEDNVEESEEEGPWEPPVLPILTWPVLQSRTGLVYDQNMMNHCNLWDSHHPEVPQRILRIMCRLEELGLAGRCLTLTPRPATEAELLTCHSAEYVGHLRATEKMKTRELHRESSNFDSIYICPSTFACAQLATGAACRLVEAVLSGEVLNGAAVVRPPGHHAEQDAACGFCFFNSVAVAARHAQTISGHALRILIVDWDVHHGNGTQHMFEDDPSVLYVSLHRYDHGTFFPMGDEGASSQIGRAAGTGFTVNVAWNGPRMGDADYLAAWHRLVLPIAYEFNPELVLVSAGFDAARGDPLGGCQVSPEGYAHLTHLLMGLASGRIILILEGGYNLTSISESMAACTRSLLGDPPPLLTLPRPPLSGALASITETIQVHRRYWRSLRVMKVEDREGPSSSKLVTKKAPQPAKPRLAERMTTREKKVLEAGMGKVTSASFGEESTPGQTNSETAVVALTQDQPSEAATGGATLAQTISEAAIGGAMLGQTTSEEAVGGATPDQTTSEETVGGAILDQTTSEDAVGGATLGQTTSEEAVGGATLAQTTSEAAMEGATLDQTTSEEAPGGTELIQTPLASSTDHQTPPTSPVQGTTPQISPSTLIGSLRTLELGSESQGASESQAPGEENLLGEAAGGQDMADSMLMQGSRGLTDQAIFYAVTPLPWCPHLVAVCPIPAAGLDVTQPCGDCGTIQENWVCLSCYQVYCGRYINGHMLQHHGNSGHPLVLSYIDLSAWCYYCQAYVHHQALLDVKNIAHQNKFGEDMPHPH

MDA-MB-231 [11] = experiment: Induction of apoptosis in human MDA-MB-231 cells assessed as late apoptotic cells at 2.5 uM incubated for 48 hrs by Annexin V-FITC/PI staining based flow cytometry relative to control; assay type: functional
Candida albicans [12] = experiment: Synergistic antifungal activity FLC-resistant Candida albicans 0304103 assessed as hyphal formation at 32 ug/ml incubated for 3 hrs in presence of FLC by inverse fluorescent microscopy; assay type: functional, organism-based; conditions: dose 32.0 µg/ml
MDA-MB-231 [13] = experiment: Antitumor activity against human MDA-MB-231 cells xenografted in Balb/c nude mouse assessed as tumor growth inhibition at 10 mg/kg, ip qd for 21 consecutive days relative to control; assay type: functional; conditions: MDA-MB-231, 480 h, time 20 day, read-out: TGI
[14] = biological target: Bromodomain-containing protein 2 (Homo sapiens, UniProt P25440); experiment: Inhibition of recombinant BRD2 BD1 (unknown origin) incubated for 120 mins by TR-FRET assay
Chain of Bromodomain-containing protein 2 (P25440 whole entry): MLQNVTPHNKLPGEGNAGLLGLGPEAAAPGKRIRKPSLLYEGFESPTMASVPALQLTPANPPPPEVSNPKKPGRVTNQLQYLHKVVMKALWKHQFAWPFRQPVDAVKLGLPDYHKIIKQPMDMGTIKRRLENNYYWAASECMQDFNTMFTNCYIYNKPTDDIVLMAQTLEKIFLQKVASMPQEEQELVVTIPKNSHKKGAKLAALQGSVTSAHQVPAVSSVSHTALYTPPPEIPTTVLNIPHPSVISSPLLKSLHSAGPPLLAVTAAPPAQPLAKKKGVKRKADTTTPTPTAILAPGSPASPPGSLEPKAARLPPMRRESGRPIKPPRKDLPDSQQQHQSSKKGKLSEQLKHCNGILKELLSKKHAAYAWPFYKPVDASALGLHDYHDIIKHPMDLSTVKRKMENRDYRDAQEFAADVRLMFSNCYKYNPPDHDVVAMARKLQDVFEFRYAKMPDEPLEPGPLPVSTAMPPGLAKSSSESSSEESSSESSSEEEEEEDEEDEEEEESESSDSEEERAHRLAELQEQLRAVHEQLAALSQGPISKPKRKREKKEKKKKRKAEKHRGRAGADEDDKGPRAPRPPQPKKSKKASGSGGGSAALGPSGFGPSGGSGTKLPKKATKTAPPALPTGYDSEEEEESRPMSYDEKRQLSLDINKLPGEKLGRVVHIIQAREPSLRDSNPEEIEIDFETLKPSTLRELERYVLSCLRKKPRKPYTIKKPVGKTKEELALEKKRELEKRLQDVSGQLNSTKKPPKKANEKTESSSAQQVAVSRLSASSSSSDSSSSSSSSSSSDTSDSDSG

[15] = Metabolic stability in ICR mouse liver microsome assessed as half life; assay type: ADME; conditions: liver microsomes
MDA-MB-231 [16] = experiment: Induction of apoptosis in human MDA-MB-231 cells incubated for 48 hrs by Annexin V-FITC/PI staining based flow cytometry; assay type: functional, cell-based; conditions: dose 2.5-10 µM
MDA-MB-231 [17] = experiment: Downregulation of c-Myc expression in human MDA-MB-231 cells incubated for 24 hrs by Western blot analysis; assay type: functional, cell-based; conditions: dose 0.2-5 µM

| Compound | pIC50 (HEL) | pIC50 [1] | CLint scaled [2] [L/h/kg] | Activity (MDA-MB-231 [3]) [%] | MIC80 (Candida albicans [4]) [mg/L] | inhibition [5] [%] | MIC80 (Candida albicans [6]) [mg/L] | Activity (MDA-MB-231 [7]) | pIC50 (HL-60) | Activity (MDA-MB-231 [8]) [%] | pIC50 [9] | pIC50 (K562) | pIC50 (Histone deacetylase 3) | pIC50 [10] | Activity (MDA-MB-231 [11]) [%] | Activity (Candida albicans [12]) | inhibition in vivo at 10 mg/kg (MDA-MB-231 [13]) [%] | pIC50 [14] | half-life [15] [min] | Activity (MDA-MB-231 [16]) | also measured |
| --- | --- | --- | --- | --- | --- | --- | --- | --- | --- | --- | --- | --- | --- | --- | --- | --- | --- | --- | --- | --- | --- |
| COc1cc2c(cc1-c1c(C)noc1C)[nH]c1ncnc(NCCCCCCC(=O)NO)c12 | 5.41 | 7.46 | 6.18 | 58.39 | > 64 | 93.7 | 0.5 (≈ 1.1 µM) | Dose-Dependent Effect | 5.92 | 69.85 | 6.66 | 5.60 | 6.79 | 8.05 | 25.19 | inactive | 64.9 | 6.76 | 53.3 | Dose-Dependent Effect | Activity (MDA-MB-231 [17]): Dose-Dependent Effect |
| COc1cc2c(cc1-c1c(C)noc1C)[nH]c1nc(C)nc(NCCCCCCC(=O)NO)c12 | 6.05 | 7.20 | 17.1 | 46.61 | > 64 | 91.7 | 8 (≈ 17.1 µM) | Dose-Dependent Effect | 5.72 | 49.38 | 5.96 | 5.60 | 6.67 | 7.85 | 8.35 | inactive | 67.9 | 5.70 | 19.3 | Dose-Dependent Effect | Activity (MDA-MB-231 [17]): Dose-Dependent Effect |

— ChEMBL document CHEMBL5316308, “BET-HDAC Dual Inhibitors for Combinational Treatment of Breast Cancer and Concurrent Candidiasis” (J Med Chem, 2023)
